Source: patent US20210214560A1, “COMPOUND, COLORING COMPOSITION, INK, TONER, COLORING RESIN COMPOSITION, AND COMPOSITION FOR DYEING FIBER” (FUJIFILM Corporation, priority 2018, published 2021)

What was measured:
Format in all cases: physicochemical
[1] = Evaluation of heat stability (heat resistance), powder heated at 180° C. for 5 minutes; details: oven 180° C. for 5 minutes, A/A0×100, absorbance in tetrahydrofuran
Description: (§1) Heat stability of each compound was evaluated by the following procedure. 10 mg of the powder of each compound was dissolved in 500 mL of tetrahydrofuran, and the absorption spectrum was measured to obtain a reference absorbance (A0). On the other hand, 10 mg of the powder of each compound was weighed in a 4 cm square aluminum cup, placed in an oven, and heated at 180° C. for 5 minutes. The entire amount of the powder after heating was dissolved in 500 mL of tetrahydrofuran, and the absorption spectrum was measured to obtain an absorbance (A) after the heating test. The residual rate of each compound was calculated by the following expression to evaluate heat stability.
Residual rate of compound (%)=A/A0×100

[2] = Evaluation of maximum absorption wavelength (absorption spectrum in tetrahydrofuran solution); details: 1×10^−6 mol/L
[3] = Evaluation 2 of heat stability, powder heated at 200° C. for 5 minutes; details: oven 200° C. for 5 minutes, A2/A0×100, absorbance in tetrahydrofuran
Description: as §1, with “200°” for “180°”, “(A2)” for “(A)”
Residual rate of compound (%)=A2/A0×100

[4] = optical path length 10 mm (Table 7)
[5] = optical path length 10 mm (Table 9)

Structure (SMILES) | Residual rate of compound [1] [%] | Absorption maximum wavelength [2, 4] [nm] | Molar light absorption coefficient [2, 4] | Absorption maximum wavelength [2, 5] [nm] | Molar light absorption coefficient [2, 5] [L/mol/cm] | Residual rate of compound [3] [%]
CCCCCC1(C)Nc2cccc3c(N=Nc4ccc(N=Nc5ccccc5Cl)c5ccccc45)ccc(c23)N1 (centres unmarked) [(1-9)] | 84 | 629 | 35,900 L · mol^−1 · cm^−1 | – | – | –
CCCCCC1(C)Nc2cccc3ccc(N=Nc4ccc(N=Nc5ccccc5Cl)c5ccccc45)c(c23)N1 (centres unmarked) [(3-10)] | – | – | – | 615 | 34800 | 88
CC1(CC#N)Nc2cccc3c(N=Nc4ccc(N=Nc5ccccc5Cl)c5ccccc45)ccc(c23)N1 (centres unmarked) [(1-61)] | 77 | 604 | 34,100 L · mol^−1 · cm^−1 | – | – | –
CC1CCCCC12Nc1cccc3c(N=Nc4ccc(N=Nc5ccccc5Cl)c5ccccc45)ccc(c13)N2 (centres unmarked) [(1-27)] | 81 | 629 | 34,800 L · mol^−1 · cm^−1 | – | – | –
CC1(C)Nc2cccc3c(N=Nc4ccc(N=Nc5ccccc5F)c5ccccc45)ccc(c23)N1 [(1-31)] | 90 | 619 | 35,000 L · mol^−1 · cm^−1 | – | – | –
CC1(C)Nc2cccc3c(N=Nc4ccc(N=Nc5ccccc5C(=O)c5ccccc5)c5ccccc45)ccc(c23)N1 [(1-59)] | 82 | 639 | 35,700 L · mol^−1 · cm^−1 | – | – | –
CC(C)NC(=O)OCC1(C)Nc2cccc3c(N=Nc4ccc(N=Nc5ccccc5Cl)c5ccccc45)ccc(c23)N1 (centres unmarked) [(1-21)] | 84 | 623 | 33,900 L · mol^−1 · cm^−1 | – | – | –
CC1(CC(N)=O)Nc2cccc3c(N=Nc4ccc(N=Nc5ccccc5Cl)c5ccccc45)ccc(c23)N1 (centres unmarked) [(1-62)] | 74 | 607 | 34,200 L · mol^−1 · cm^−1 | – | – | –
COC(=O)c1ccccc1N=Nc1ccc(N=Nc2ccc3cccc4c3c2NC(C)(C)N4)c2ccccc12 [(3-3)] | – | – | – | 586 | 29200 | 86
CC(C)(C)C1(C)Nc2cccc3c(N=Nc4ccc(N=Nc5ccccc5Cl)c5ccccc45)ccc(c23)N1 (centres unmarked) [(1-8)] | 81 | 631 | 35,200 L · mol^−1 · cm^−1 | – | – | –
CC1(C)Nc2cccc3c(N=Nc4ccc(N=Nc5ccc(F)cc5)c5ccccc45)ccc(c23)N1 [Comparative compound B, reference compound] | 64 | – | – | – | – | –
CC1(Cc2ccccc2)Nc2cccc3c(N=Nc4ccc(N=Nc5ccccc5Cl)c5ccccc45)ccc(c23)N1 (centres unmarked) [(1-64)] | 73 | 631 | 36,800 L · mol^−1 · cm^−1 | – | – | –
CC1(C)Nc2cccc3ccc(N=Nc4ccc(N=Nc5ccccc5F)c5ccccc45)c(c23)N1 [(3-2)] | – | – | – | 608 | 36000 | 85
CC(=O)c1ccccc1N=Nc1ccc(N=Nc2ccc3cccc4c3c2NC(C)(C)N4)c2ccccc12 [(3-6)] | – | – | – | 615 | 36100 | 96
CC1(C)Nc2cccc3ccc(N=Nc4ccc(N=Nc5ccccc5[N+](=O)[O-])c5ccccc45)c(c23)N1 [(3-5)] | – | – | – | 627 | 32100 | 95
CCCC1(C)Nc2cccc3ccc(N=Nc4ccc(N=Nc5ccccc5Cl)c5ccccc45)c(c23)N1 (centres unmarked) [Compound (3-7)] | – | – | – | 617 | 36200 | 85

Structure (SMILES) | Residual rate of compound [1] [%] | Absorption maximum wavelength [2, 4] [nm] | Molar light absorption coefficient [2, 4] | Absorption maximum wavelength [2, 5] [nm] | Molar light absorption coefficient [2, 5] [L/mol/cm] | Residual rate of compound [3] [%]
CCC1(C)Nc2cccc3c(N=Nc4ccc(N=Nc5ccccc5Cl)c5ccccc45)ccc(c23)N1 (centres unmarked) [(1-2)] | 84 | 627 | 34,000 L · mol^−1 · cm^−1 | – | – | –
CC(C)C1(C)Nc2cccc3c(N=Nc4ccc(N=Nc5ccccc5Cl)c5ccccc45)ccc(c23)N1 (centres unmarked) [(1-4)] | 84 | 631 | 33,000 L · mol^−1 · cm^−1 | – | – | –
CC1(C)Nc2cccc3ccc(N=Nc4ccc(N=Nc5ccccc5C#N)c5ccccc45)c(c23)N1 [(3-4)] | – | – | – | 638 | 30500 | 88
CC1(C)Nc2cccc3ccc(N=Nc4ccc(N=Nc5ccccc5)c5ccccc45)c(c23)N1 [Comparative compound D, reference compound] | – | – | – | 599 | 34200 | 65
CC1(C)Nc2cccc3c(N=Nc4ccc(N=Nc5ccccc5Br)c5ccccc45)ccc(c23)N1 [(1-34)] | 74 | 621 | 32,800 L · mol^−1 · cm^−1 | – | – | –
CCCCC1(C)Nc2cccc3ccc(N=Nc4ccc(N=Nc5ccccc5Cl)c5ccccc45)c(c23)N1 (centres unmarked) [(3-8)] | – | – | – | 616 | 35800 | 87
COC(=O)c1ccccc1N=Nc1ccc(N=Nc2ccc3c4c(cccc24)NC(C)(C)N3)c2ccccc12 [(1-40)] | 80 | 599 | 26,600 L · mol^−1 · cm^−1 | – | – | –
CC1(CO)Nc2cccc3c(N=Nc4ccc(N=Nc5ccccc5Cl)c5ccccc45)ccc(c23)N1 (centres unmarked) [(1-17)] | 89 | 622 | 33,100 L · mol^−1 · cm^−1 | – | – | –
CC1(C)Nc2cccc3c(N=Nc4ccc(N=Nc5ccccc5Cl)c5ccccc45)ccc(c23)N1 [(1-1)] | 85 | 624 | 34,500 L · mol^−1 · cm^−1 | – | – | –
CCCCCC1(C)Nc2cccc3c(N=Nc4ccc(N=Nc5ccccc5C(C)=O)c5ccccc45)ccc(c23)N1 (centres unmarked) [(1-50)] | 98 | 629 | 34,900 L · mol^−1 · cm^−1 | – | – | –
CC(C)C1(C)Nc2cccc3ccc(N=Nc4ccc(N=Nc5ccccc5Cl)c5ccccc45)c(c23)N1 (centres unmarked) [(3-9)] | – | – | – | 614 | 35500 | 85
CCCCC(CC)C(=O)OCC1(C)Nc2cccc3c(N=Nc4ccc(N=Nc5ccccc5Cl)c5ccccc45)ccc(c23)N1 (centres unmarked) [(1-20)] | 84 | 623 | 33,800 L · mol^−1 · cm^−1 | – | – | –
CCCCC1(C)Nc2cccc3c(N=Nc4ccc(N=Nc5ccccc5Cl)c5ccccc45)ccc(c23)N1 (centres unmarked) [(1-5)] | 81 | 629 | 35,100 L · mol^−1 · cm^−1 | – | – | –
CC1(C)Nc2cccc3c(N=Nc4ccc(N=Nc5ccccc5C#N)c5ccccc45)ccc(c23)N1 [(1-38)] | 92 | 648 | 28,900 L · mol^−1 · cm^−1 | – | – | –
CC1(C)Nc2cccc3c(N=Nc4ccc(N=Nc5cccc(F)c5)c5ccccc45)ccc(c23)N1 [Comparative compound A, reference compound] | 63 | – | – | – | – | –
CCCC1(C)Nc2cccc3c(N=Nc4ccc(N=Nc5ccccc5Cl)c5ccccc45)ccc(c23)N1 (centres unmarked) [Compound (1-3)] | 82 | 629 | 34,400 L · mol^−1 · cm^−1 | – | – | –
